Test results from paper PMC5680308, “Binding of mycotoxins to proteins involved in neuronal plasticity: a combined in silico/wet investigation” (Scientific Reports, 2017).
Like-named read-outs stand apart in the source and are kept apart here.

Assays:
[1] = target: T1, Human recombinant neuroligin 4-X linked (NLGN4X) (Homo sapiens, UniProt Q8N0W4); test: biochemical; type: binding; settings: for Kd: read-out: dissociation constant (kD)
[2] = target: T2, human recombinant acetylcholinesterase (AChE) (Homo sapiens, UniProt P22303); test: Microscale thermophoresis (MST) assay; type: binding
T2 construct: purchased Sigma Aldrich (Milano, Italy)
T2 sequence (P22303 32-614): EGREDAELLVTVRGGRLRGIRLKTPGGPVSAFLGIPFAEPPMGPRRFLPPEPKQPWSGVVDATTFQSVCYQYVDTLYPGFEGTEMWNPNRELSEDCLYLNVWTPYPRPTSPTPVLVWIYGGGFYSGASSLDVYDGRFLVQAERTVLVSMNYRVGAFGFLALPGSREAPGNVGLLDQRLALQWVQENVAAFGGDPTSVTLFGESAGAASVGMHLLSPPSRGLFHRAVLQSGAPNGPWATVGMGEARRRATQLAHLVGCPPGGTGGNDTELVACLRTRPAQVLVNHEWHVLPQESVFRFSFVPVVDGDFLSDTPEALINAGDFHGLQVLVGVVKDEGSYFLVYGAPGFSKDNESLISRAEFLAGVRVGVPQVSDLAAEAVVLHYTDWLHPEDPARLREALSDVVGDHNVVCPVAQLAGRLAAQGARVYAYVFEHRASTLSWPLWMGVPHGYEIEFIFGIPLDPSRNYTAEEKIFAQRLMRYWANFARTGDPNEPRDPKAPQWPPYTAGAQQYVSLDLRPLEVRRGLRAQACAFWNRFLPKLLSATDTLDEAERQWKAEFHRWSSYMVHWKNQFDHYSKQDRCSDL

[3] = target: T1, Human recombinant neuroligin 4-X linked (NLGN4X); test: Microscale thermophoresis (MST) assay; type: binding
[4] = target: T2, human recombinant acetylcholinesterase (AChE); test: Fluorescence steady-state binding experiments (intrinsic Trp fluorescence); settings: pH 7.4

T1 sequence (Q8N0W4 42-676 limits assumed): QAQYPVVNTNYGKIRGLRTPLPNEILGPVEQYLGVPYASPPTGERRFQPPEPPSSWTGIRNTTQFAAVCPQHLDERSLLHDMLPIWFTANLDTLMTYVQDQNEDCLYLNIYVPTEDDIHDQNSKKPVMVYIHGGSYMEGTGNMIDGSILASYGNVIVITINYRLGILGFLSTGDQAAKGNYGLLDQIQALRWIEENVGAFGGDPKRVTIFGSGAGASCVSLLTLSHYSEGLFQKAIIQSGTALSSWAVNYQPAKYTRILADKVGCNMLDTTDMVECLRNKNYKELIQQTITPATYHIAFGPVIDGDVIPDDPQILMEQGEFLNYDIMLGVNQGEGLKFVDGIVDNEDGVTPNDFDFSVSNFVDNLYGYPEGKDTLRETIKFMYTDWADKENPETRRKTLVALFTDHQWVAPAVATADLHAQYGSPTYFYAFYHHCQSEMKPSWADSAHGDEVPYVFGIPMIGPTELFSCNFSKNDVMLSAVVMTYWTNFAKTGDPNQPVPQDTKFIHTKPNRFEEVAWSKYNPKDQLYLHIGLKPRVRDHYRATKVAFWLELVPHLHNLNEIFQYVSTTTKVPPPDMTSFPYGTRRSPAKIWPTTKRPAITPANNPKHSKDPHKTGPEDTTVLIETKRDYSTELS

With `COc1cc2c(c3oc(=O)c4c(c13)CCC4=O)[C@@H]1CCO[C@@H]1O2` [Aflatoxin B2, aflatoxin B2] as the compound, how does the “quenching / decrease of the protein fluorescence emission intensity” value (from here on “quenching / decrease”) ([1]; pH 7.4) read?
The value was “about 11%”.

And the Kd ([1]; pH 7.4)?
Its Kd is 10.3 nM.

What about the “interaction with the protein in MST” value [2] of the same compound?
Its value is “did not confirm this prediction”.

And the Kd ([3]; pH 7.4, read-out: kD for the binding site at higher affinity)?
Its Kd is 56.6 nM.

For `CC1=C[C@H]2O[C@@H]3[C@H](O)C[C@](C)([C@@]2(CO)[C@H](O)C1=O)[C@]31CO1` [Deoxynivalenol, deoxynivalenol], which “quenching / decrease” value ([1]; pH 7.4) is on record?
The value was 17%.

How did the Kd ([1]; Trp fluorescence emission variation, PBS buffer pH 7.4, 25 °C, non-linear regression) turn out when `CN1C(=O)[C@]23CC4=CC=C[C@H](O)[C@H]4N2C(=O)[C@@]1(CO)SS3` [Gliotoxin, gliotoxin] was run?
The Kd was 307 nM.

And the “quenching / decrease” value ([1]; pH 7.4)?
The value was “about 17%”.

What about the “interaction with the protein in MST” value ([2]; result in words, data not shown) of the same compound?
The value was “did not confirm this prediction”.

And the Kd ([3]; MST, PBS buffer pH 7.4, 25 °C, read-out: kD)?
The Kd was 1520 nM.

How did the “decrease of the fluorescence emission spectrum at increasing concentrations of the toxin” value [1] turn out when Aflatoxin B1 was run?
The value was “did not show a significant decrease”.

What about the “effect on Trp fluorescence emission at increasing toxin concentration” value [4] of the same compound?
The value was “a quenching effect was registered”.

And the Kd ([2]; pH 8)?
Its Kd is 8400 ± 694 nM.

And the “interaction with the protein in MST” value ([3]; pH 7.4)?
Its value is “no evidence of the interaction”.
